Measured values published in the supplement of paper PMC10307832.

How the values were obtained:
Test in all cases: relative viability (nuclei count vs DMSO), 5 days (fraction); higher = more cells survive
[1] = system: 201T
Outline: (§1)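 Each reported value is a median over duplicate plates. It expresses relative viability: treated-well nuclei count divided by vehicle-well nuclei count. Lung cancer cell lines in 1536-well plates were dosed by pin tool a day after seeding, alone with one drug or with a fixed anchor-drug dose plus five library-drug doses (not always all listed) in √10 steps, and nuclei were counted after 5 days.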

[2] = system: COR-L23
Outline: as §1

[3] = system: EPLC-272H
Outline: as §1

[4] = system: H3255
Outline: as §1

[5] = system: HCC-15
Outline: as §1

[6] = system: LOU-NH91
Outline: as §1

[7] = system: NCI-H1563
Outline: as §1

[8] = system: NCI-H1650
Outline: as §1

[9] = system: NCI-H1734
Outline: as §1

[10] = system: NCI-H1793
Outline: as §1

[11] = system: NCI-H2023
Outline: as §1

[12] = system: NCI-H2170
Outline: as §1

[13] = system: NCI-H2347
Outline: as §1

[14] = system: NCI-H2405
Outline: as §1

[15] = system: NCI-H3122
Outline: as §1

[16] = system: NCI-H322M
Outline: as §1

[17] = system: NCI-H441
Outline: as §1

[18] = system: NCI-H520
Outline: as §1

[19] = system: NCI-H647
Outline: as §1

[20] = system: PC-14
Outline: as §1

[21] = system: SW 900
Outline: as §1

[22] = system: UMC-11
Outline: as §1

O=c1cc(N2CCOCC2)oc2c(-c3cccc4c3sc3ccccc34)cccc12 + CCNC(=O)c1noc(-c2cc(C(C)C)c(O)cc2O)c1-c1ccc(CN2CCOCC2)cc1 [Luminespib] (partner 0.01 µM)
relative viability ([1]; first compound 0.01 µM): 0.961
relative viability ([1]; first compound 0.03162 µM): 1.1
relative viability ([1]; first compound 0.1 µM): 1.03
relative viability ([1]; first compound 0.3162 µM): 1.02
relative viability ([1]; first compound 1 µM): 0.996
relative viability ([2]; first compound 0.01 µM): 0.763
relative viability ([2]; first compound 0.03162 µM): 0.654
relative viability ([2]; first compound 0.1 µM): 0.724
relative viability ([2]; first compound 0.3162 µM): 0.608
relative viability ([2]; first compound 1 µM): 0.779
relative viability ([3]; first compound 0.01 µM): 0.244
relative viability ([3]; first compound 0.03162 µM): 0.449
relative viability ([3]; first compound 0.3162 µM): 0.19
relative viability ([3]; first compound 1 µM): 0.281
relative viability ([4]; first compound 0.01 µM): 0.885
relative viability ([4]; first compound 0.03162 µM): 0.991
relative viability ([4]; first compound 0.1 µM): 0.948
relative viability ([4]; first compound 0.3162 µM): 0.909
relative viability ([4]; first compound 1 µM): 0.945
relative viability ([5]; first compound 0.01 µM): 0.301
relative viability ([5]; first compound 0.03162 µM): 0.294
relative viability ([5]; first compound 0.1 µM): 0.604
relative viability ([5]; first compound 0.3162 µM): 0.339
relative viability ([5]; first compound 1 µM): 0.344
relative viability ([6]; first compound 0.01 µM): 0.352
relative viability ([6]; first compound 0.03162 µM): 0.318
relative viability ([6]; first compound 0.1 µM): 0.33
relative viability ([6]; first compound 0.3162 µM): 0.373
relative viability ([6]; first compound 1 µM): 0.36
relative viability ([7]; first compound 0.01 µM): 0.519
relative viability ([7]; first compound 0.03162 µM): 0.552
relative viability ([7]; first compound 0.1 µM): 0.515
relative viability ([7]; first compound 0.3162 µM): 0.558
relative viability ([7]; first compound 1 µM): 0.544
relative viability ([8]; first compound 0.01 µM): 0.211
relative viability ([8]; first compound 0.03162 µM): 0.169
relative viability ([8]; first compound 0.1 µM): 0.196
relative viability ([8]; first compound 0.3162 µM): 0.203
relative viability ([8]; first compound 1 µM): 0.191
relative viability ([9]; first compound 0.01 µM): 0.199
relative viability ([9]; first compound 0.03162 µM): 0.168
relative viability ([9]; first compound 0.1 µM): 0.216
relative viability ([9]; first compound 0.3162 µM): 0.187
relative viability ([9]; first compound 1 µM): 0.179
relative viability ([10]; first compound 0.01 µM): 0.159
relative viability ([10]; first compound 0.1 µM): 0.173
relative viability ([10]; first compound 0.3162 µM): 0.134
relative viability ([10]; first compound 1 µM): 0.18
relative viability ([11]; first compound 0.01 µM): 0.672
relative viability ([11]; first compound 0.03162 µM): 0.72
relative viability ([11]; first compound 0.1 µM): 0.793
relative viability ([11]; first compound 0.3162 µM): 0.859
relative viability ([11]; first compound 1 µM): 0.588
relative viability ([12]; first compound 0.01 µM): 0.445
relative viability ([12]; first compound 0.03162 µM): 0.668
relative viability ([12]; first compound 0.1 µM): 0.654
relative viability ([12]; first compound 0.3162 µM): 0.548
relative viability ([12]; first compound 1 µM): 0.744
relative viability ([13]; first compound 0.01 µM): 0.571
relative viability ([13]; first compound 0.03162 µM): 0.383
relative viability ([13]; first compound 0.1 µM): 0.641
relative viability ([13]; first compound 0.3162 µM): 0.409
relative viability ([13]; first compound 1 µM): 0.323
relative viability ([14]; first compound 0.01 µM): 0.712
relative viability ([14]; first compound 0.03162 µM): 0.571
relative viability ([14]; first compound 0.1 µM): 0.722
relative viability ([14]; first compound 0.3162 µM): 0.717
relative viability ([14]; first compound 1 µM): 0.681
relative viability ([15]; first compound 0.01 µM): 0.073
relative viability ([15]; first compound 0.03162 µM): 0.101
relative viability ([15]; first compound 0.1 µM): 0.0916
relative viability ([15]; first compound 0.3162 µM): 0.0864
relative viability ([15]; first compound 1 µM): 0.0779
relative viability ([16]; first compound 0.01 µM): 0.901
relative viability ([16]; first compound 0.03162 µM): 0.864
relative viability ([16]; first compound 0.1 µM): 0.889
relative viability ([16]; first compound 0.3162 µM): 0.839
relative viability ([16]; first compound 1 µM): 0.756
relative viability ([17]; first compound 0.01 µM): 0.334
relative viability ([17]; first compound 0.03162 µM): 0.406
relative viability ([17]; first compound 0.1 µM): 0.357
relative viability ([17]; first compound 0.3162 µM): 0.417
relative viability ([17]; first compound 1 µM): 0.454
relative viability ([18]; first compound 0.01 µM): 0.213
relative viability ([18]; first compound 0.03162 µM): 0.285
relative viability ([18]; first compound 0.1 µM): 0.24
relative viability ([18]; first compound 0.3162 µM): 0.209
relative viability ([18]; first compound 1 µM): 0.249
relative viability ([19]; first compound 0.01 µM): 0.132
relative viability ([19]; first compound 0.03162 µM): 0.115
relative viability ([19]; first compound 0.1 µM): 0.101
relative viability ([19]; first compound 0.3162 µM): 0.259
relative viability ([19]; first compound 1 µM): 0.209
relative viability ([20]; first compound 0.03162 µM): 0.151
relative viability ([20]; first compound 0.3162 µM): 0.197
relative viability ([20]; first compound 1 µM): 0.135
relative viability ([21]; first compound 0.01 µM): 0.203
relative viability ([21]; first compound 0.03162 µM): 0.186
relative viability ([21]; first compound 0.1 µM): 0.173
relative viability ([21]; first compound 0.3162 µM): 0.196
relative viability ([21]; first compound 1 µM): 0.176
relative viability ([22]; first compound 0.01 µM): 0.971
relative viability ([22]; first compound 0.03162 µM): 0.997
relative viability ([22]; first compound 0.1 µM): 1.12
relative viability ([22]; first compound 0.3162 µM): 0.986
relative viability ([22]; first compound 1 µM): 0.982
